Test results taken from the NIST ThermoML archive (doi:10.1016/j.fluid.2009.10.009).
Numbers after ± are expanded uncertainties.

Conditions: Crystal

A Normal melting temperature (Visual) of 7.00 °C was found for `CCCCCCCCCCO` [decan-1-ol] in this work.

A Normal melting temperature (visual observation) of 148.00 ± 0.39 °C was found for `CC(C)CCC[C@@H](C)[C@H]1CC[C@H]2[C@@H]3CC=C4C[C@@H](O)CC[C@]4(C)[C@H]3CC[C@]12C` [.DELTA.5-cholesten-3β-ol] in this work.
